In brackets after ≈: the same amount, converted by molar mass.
Tests used:
[1] = tested on: Streptococcus sp. group D 2041; assay type: cell-based; settings: agar dilution
[2] = tested on: Staphylococcus aureus X400; settings: agar dilution
[3] = tested on: Streptococcus faecium ATCC 9790; assay type: cell-based; settings: agar dilution
Klebsiella pneumonia X68 = assay type: cell-based; settings: agar dilution
Klebsiella pneumonia KAE = assay type: cell-based; settings: agar dilution
[4] = tested on: Staphylococcus aureus NRRL B313; settings: agar dilution
[5] = tested on: Streptococcus pyogenes C203; assay type: cell-based; settings: agar dilution
[6] = tested on: Staphylococcus epidermidis EP11; assay type: cell-based; settings: agar dilution
[7] = tested on: Haemophilus influenzae C.L.; assay type: cell-based; settings: agar dilution
[8] = tested on: Streptococcus pneumoniae Park 1; assay type: cell-based; settings: agar dilution
Escherichia coli EC14 = assay type: cell-based; settings: agar dilution
Escherichia coli N10 = assay type: cell-based; settings: agar dilution
[9] = tested on: Staphylococcus aureus V41; settings: agar dilution
Escherichia coli TEM = assay type: cell-based; settings: agar dilution
[10] = tested on: Haemophilus influenzae 76; assay type: cell-based; settings: agar dilution
Klebsiella pneumonia X26 = assay type: cell-based; settings: agar dilution
[11] = tested on: Staphylococcus epidermidis 222; assay type: cell-based; settings: agar dilution
[12] = tested on: Bacteroides thetaiotaomicron 1438; assay type: cell-based; settings: agar dilution, read after 24 hrs
[13] = tested on: Bacteroides fragilis 1936B; assay type: cell-based; settings: agar dilution, read after 24 hrs
Streptococcus pyogenes = test: experimental bacterial infection in mice, ED50; assay type: in vivo; settings: subcutaneous, two doses
Procedure: (§1) The formula 1 compounds have also shown in vivo antimicrobial activity against experimental bacterial infections. When two doses of test compound were administered to mice in experimental infections, the activity observed was measured as an ED50 value [effective dose in mg/kg to protect 50% of the test animals: see Warren Wick, et al., J. Bacteriol. 81, 233-235 (1961)].

Staphylococcus aureus = test: experimental bacterial infection in mice, ED50; assay type: in vivo; settings: subcutaneous, two doses
Procedure: as §1

Streptococcus pneumoniae = test: experimental bacterial infection in mice, ED50; assay type: in vivo; settings: subcutaneous, two doses
Procedure: as §1

[14] = tested on: Clostridium perfringens 81; assay type: cell-based; settings: agar dilution, read after 24 hrs
[15] = tested on: Peptococcus asaccharolyticus 1302; assay type: cell-based; settings: agar dilution, read after 24 hrs
[16] = tested on: Fusobacterium necrophorum 6054A; assay type: cell-based; settings: agar dilution, read after 24 hrs
[17] = tested on: Eubacterium aerofaciens 1235; assay type: cell-based; settings: agar dilution, read after 24 hrs
[18] = tested on: gram-positive microorganisms; test: in vitro antibacterial activity (general statement); assay type: cell-based; settings: statement in words
[19] = tested on: Propionibacterium acnes 79; assay type: cell-based; settings: agar dilution, read after 24 hrs
[20] = tested on: Peptostreptococcus intermedius 1264; assay type: cell-based; settings: agar dilution, read after 24 hrs
[21] = tested on: Bacteroides melaninogenicus 2736; assay type: cell-based; settings: agar dilution, read after 24 hrs
[22] = tested on: Peptostreptococcus anaerobius 1428; assay type: cell-based; settings: agar dilution, read after 24 hrs
[23] = tested on: Bacteroides fragilis 1877; assay type: cell-based; settings: agar dilution, read after 24 hrs
[24] = tested on: Bacteroides corrodens 1874; assay type: cell-based; settings: agar dilution, read after 24 hrs
[25] = tested on: Fusobacterium symbiosum 1470; assay type: cell-based; settings: agar dilution, read after 24 hrs
[26] = tested on: Bacteroides melaninogenicus 1856/28; assay type: cell-based; settings: agar dilution, read after 24 hrs
[27] = tested on: Bacteroides vulgatis 1211; assay type: cell-based; settings: agar dilution, read after 24 hrs
Bacteroides fragilis 111 = assay type: cell-based; settings: agar dilution, read after 24 hrs
[28] = tested on: Clostridium difficile 2994; assay type: cell-based; settings: agar dilution, read after 24 hrs
Procedure: (§2) | read after 24hrs. incubation.

[29] = tested on: Clostridium septicum 1128; assay type: cell-based; settings: agar dilution, read after 24 hrs
Procedure: as §2

Peptococcus prevoti 1281 = settings: agar dilution, read after 24 hrs

With CC(C)C[C@@H](N)C(=O)N[C@H]1C(=O)N[C@@H](CC(N)=O)C(=O)N[C@H]2C(=O)N[C@H]3C(=O)N[C@H](C(=O)N[C@H](C(=O)O)c4cc(O)cc(O)c4-c4cc3ccc4O)[C@H](O)c3ccc(c(Cl)c3)Oc3cc2cc(c3O[C@@H]2O[C@H](CO)[C@@H](O)[C@H](O)[C@H]2O)Oc2ccc(cc2Cl)[C@H]1O [Compound 12, Desvancosamine-A51568A] the MIC [1] was 8 µg/mL (≈ 6.19 µM), the MIC [2] was 2 µg/mL (≈ 1.55 µM) and the MIC [3] was 4 µg/mL (≈ 3.1 µM). It also gave an MIC (Klebsiella pneumonia X68) of over 128 µg/mL, an MIC (Klebsiella pneumonia KAE) of over 128 µg/mL and an MIC [4] of 2 µg/mL (≈ 1.55 µM). For the same molecule, the MIC [5] was 2 µg/mL (≈ 1.55 µM), the MIC [6] was 4 µg/mL (≈ 3.1 µM) and the MIC [7] was over 128 µg/mL. For the same molecule, the MIC [8] was 1 µg/mL (≈ 0.774 µM), the MIC (Escherichia coli EC14) was over 128 µg/mL and the MIC (Escherichia coli N10) was over 128 µg/mL. The MIC [9] was 2 µg/mL (≈ 1.55 µM), the MIC (Escherichia coli TEM) was 128 µg/mL (≈ 99.1 µM) and the MIC [10] was over 128 µg/mL. For the same molecule, the MIC (Klebsiella pneumonia X26) was over 128 µg/mL and the MIC [11] was 4 µg/mL (≈ 3.1 µM).
CC(C)C[C@H](C(=O)N[C@H]1C(=O)N[C@@H](CC(N)=O)C(=O)N[C@H]2C(=O)N[C@H]3C(=O)N[C@H](C(=O)N[C@H](C(=O)[O-])c4cc(O)cc(O)c4-c4cc3ccc4O)[C@H](O)c3ccc(c(Cl)c3)Oc3cc2cc(c3O[C@@H]2O[C@H](CO)[C@@H](O)[C@H](O)[C@H]2O)Oc2ccc(cc2Cl)[C@H]1O)[N+](C)(C)C [Compound 5, M43C] gave an MIC [1] of 8 µg/mL (≈ 6 µM), an MIC [2] of 2 µg/mL (≈ 1.5 µM) and an MIC [3] of 4 µg/mL (≈ 3 µM). The MIC (Klebsiella pneumonia X68) was over 64 µg/mL, the MIC (Klebsiella pneumonia KAE) was over 64 µg/mL and the MIC [4] was 2 µg/mL (≈ 1.5 µM). For the same molecule, the MIC [5] was 1 µg/mL (≈ 0.75 µM), the MIC [6] was 8 µg/mL (≈ 6 µM) and the MIC [7] was over 64 µg/mL. It also gave an MIC [8] of 1 µg/mL (≈ 0.75 µM), an MIC (Escherichia coli EC14) of over 64 µg/mL and an MIC (Escherichia coli N10) of over 64 µg/mL. The MIC [9] was 2 µg/mL (≈ 1.5 µM), the MIC (Escherichia coli TEM) was over 64 µg/mL and the MIC [10] was 64 µg/mL (≈ 48 µM). The MIC (Klebsiella pneumonia X26) was over 64 µg/mL and the MIC [11] was 4 µg/mL (≈ 3 µM).
CN[C@H](CC(C)C)C(=O)N[C@H]1C(=O)N[C@@H](CC(N)=O)C(=O)N[C@H]2C(=O)N[C@H]3C(=O)N[C@H](C(=O)N[C@H](C(=O)O)c4cc(O)cc(O)c4-c4cc3ccc4O)[C@H](O)c3ccc(c(Cl)c3)Oc3cc2cc(c3O)Oc2ccc(cc2Cl)[C@H]1O [Compound 10, aglucovancomycin] showed an MIC [1] of 64 µg/mL (≈ 55.9 µM), an MIC [12] of over 128 µg/mL and an MIC [13] of over 128 µg/mL. For the same molecule, the ED50 (Streptococcus pyogenes) was 22.3 mg/kg/2, the ED50 (Staphylococcus aureus) was 8.75 mg/kg/2 and the ED50 (Streptococcus pneumoniae) was 16.54 mg/kg/2. It also gave an MIC [14] of 8 µg/mL (≈ 6.99 µM), an MIC [15] of 64 µg/mL (≈ 55.9 µM) and an MIC [2] of 1 µg/mL (≈ 0.874 µM). The MIC [3] was 1 µg/mL (≈ 0.874 µM), the MIC (Klebsiella pneumonia X68) was over 128 µg/mL and the MIC [16] was 2 µg/mL (≈ 1.75 µM). The MIC (Klebsiella pneumonia KAE) was over 128 µg/mL, the MIC [17] was 128 µg/mL (≈ 112 µM) and the antibacterial activity [18] was “good in vitro antibacterial activity”. For the same molecule, the MIC [4] was 0.5 µg/mL (≈ 0.437 µM), the MIC [5] was 0.5 µg/mL (≈ 0.437 µM) and the MIC [19] was 8 µg/mL (≈ 6.99 µM). It also gave an MIC [6] of 2 µg/mL (≈ 1.75 µM), an MIC [20] of over 128 µg/mL and an MIC [7] of 64 µg/mL (≈ 55.9 µM). The MIC [8] was 0.5 µg/mL (≈ 0.437 µM), the MIC [21] was 128 µg/mL (≈ 112 µM) and the MIC (Escherichia coli EC14) was over 128 µg/mL. The MIC [22] was 32 µg/mL (≈ 28 µM), the MIC (Escherichia coli N10) was over 128 µg/mL and the MIC [23] was 128 µg/mL (≈ 112 µM). For the same molecule, the MIC [9] was 1 µg/mL (≈ 0.874 µM), the MIC [24] was over 128 µg/mL and the MIC (Escherichia coli TEM) was 64 µg/mL (≈ 55.9 µM). For the same molecule, the MIC [10] was 64 µg/mL (≈ 55.9 µM), the MIC (Klebsiella pneumonia X26) was over 128 µg/mL and the MIC [25] was 8 µg/mL (≈ 6.99 µM). For the same molecule, the MIC [26] was over 128 µg/mL, the MIC [27] was 128 µg/mL (≈ 112 µM) and the MIC (Bacteroides fragilis 111) was over 128 µg/mL. For the same molecule, the MIC [11] was 1 µg/mL (≈ 0.874 µM), the MIC [28] was 8 µg/mL (≈ 6.99 µM) and the MIC [29] was 8 µg/mL (≈ 6.99 µM). It also gave an MIC (Peptococcus prevoti 1281) of 8 µg/mL (≈ 6.99 µM).

Source: patent US4552701A, “Glycopeptide antibiotics and process of preparation” (Eli Lilly and Company, priority 1984, dated 1985)
